In patent US20250215039A1, “NUCLEOSIDES FOR TREATING CANCER” (PRIMEFOUR THERAPEUTICS, INC., priority 2022, published 2025):
pIC50: −log10 of the molar value. Where two headings read alike, the source gives them in different places.

Tested on: cancer cell lines
Test: Cancer cell proliferation activity (CellTiterGlo, 72 h)
Type: cell-based
Settings: 72 h, 72 h, read-out: IC50 cell proliferation
Procedure, shortened: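 Readout is CellTiterGlo luminescence after 72 h compound exposure (0.1% DMSO final), started one day post-seeding, at 37 °C.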

Nc1nc(=O)n([C@H]2C[C@H](O)[C@@H](CO)O2)cc1F [compound 169, 4-amino-5-fluoro-1-((2R,4S,5R)-4-hydroxy-5-(hydroxymethyl)tetrahydrofuran-2-yl)pyrimidin-2(1H)-one]
pIC50 (5637 (bladder)): 9.00
pIC50 (CLS439 (bladder)): 7.64
pIC50 (HS729 (muscle)): 7.82
pIC50 (J82 (bladder)): 8.30
pIC50 (JAR (placenta)): 7.74
pIC50 (MT3 (breast)): 8.40
pIC50 (PANCI (pancreas)): 7.55
pIC50 (PC3 (prostate)): 7.85
pIC50 (RD (muscle)): 8.00
pIC50 (T24 (bladder)): 8.30
pIC50 (Homo sapiens, 22Rv1, 72 h, 22RV1 (prostate)): 8.70
pIC50 (Homo sapiens, 786-0, 72 h, 786O (kidney)): 7.77
pIC50 (Homo sapiens, A204, 72 h, A204 (muscle)): 7.29
pIC50 (Homo sapiens, A549, 72 h, A549 (lung)): 7.85
pIC50 (Homo sapiens, A673, 72 h, A673 (bone)): 8.52
pIC50 (Homo sapiens, A2780, 72 h, A2780 (ovary)): 8.10
pIC50 (Homo sapiens, A-375, 72 h, A375 (skin)): 8.15
pIC50 (Homo sapiens, A-431, 72 h, A431 (skin)): 9.40
pIC50 (Homo sapiens, ACHN, ACHN (kidney)): 8.52
pIC50 (Homo sapiens, ASPC1, 72 h, ASPC1 (pancreas)): 8.10
pIC50 (Homo sapiens, BT-20, 72 h, BT20 (breast)): < 4.30
pIC50 (Homo sapiens, BXPC-3, 72 h, BXPC3 (pancreas)): 9.00
pIC50 (Homo sapiens, C-33-A, C33A (endometrial)): 8.05
pIC50 (Homo sapiens, CAKI-1, 72 h, CAKI1 (kidney)): 7.35
pIC50 (Homo sapiens, COLO 205, 72 h, COLO205 (colon)): 9.00
pIC50 (Homo sapiens, COLO-678, 72 h, COLO678 (colon)): < 4.30
pIC50 (Homo sapiens, Ca-Ski, CASKI (endometrial)): 7.64
pIC50 (Homo sapiens, Caco-2, 72 h, CACO2 (colon)): < 4.30
pIC50 (Homo sapiens, Calu-6, 72 h, CALU6 (lung)): 7.54
pIC50 (Homo sapiens, DLD-1, 72 h, DLD1 (colon)): 7.80
pIC50 (Homo sapiens, DU-145, 72 h, DU145 (prostate)): 8.00
pIC50 (Homo sapiens, EFO-21, 72 h, EFO21 (ovary)): 6.32
pIC50 (Homo sapiens, EJ-28, 72 h, EJ28 (bladder)): 8.40
pIC50 (Homo sapiens, Granta-519, 72 h, GRANTA-519 (hematological)): 8.05
pIC50 (Homo sapiens, HCT-15, 72 h, HCT15 (colon)): 7.82
pIC50 (Homo sapiens, HCT-116, 72 h, HCT116 (colon)): 7.64
pIC50 (Homo sapiens, HEK293, 72 h, HEK293 (kidney)): 7.52
pIC50 (Homo sapiens, HL-60, 72 h, HL-60 (hematological)): 8.10
pIC50 (Homo sapiens, HT-29, 72 h, HT29 (colon)): 8.70
pIC50 (Homo sapiens, HT-1080, 72 h, HT1080 (connective tissue)): 8.10
pIC50 (Homo sapiens, HeLa, HELA (endometrial)): 5.81
pIC50 (Homo sapiens, HepG2, 72 h, HEPG2 (liver)): 8.70
pIC50 (Homo sapiens, Hs-578T, HS578T (breast)): < 4.30
pIC50 (Homo sapiens, IGROV-1, 72 h, IGROV1 (ovary)): 7.66
pIC50 (Homo sapiens, IMR-90, 72 h, IMR90 (lung)): < 4.30
pIC50 (Homo sapiens, JEG-3, 72 h, JEG3 (placenta)): 8.70
pIC50 (Homo sapiens, JIMT-1, 72 h, JIMT1 (breast)): 7.47
pIC50 (Homo sapiens, K562, 72 h, K-562 (hematological)): 7.03
pIC50 (Homo sapiens, Kasumi 1, 72 h, KASUMI-1 (hematological)): 7.80
pIC50 (Homo sapiens, L-363, 72 h, L-363 (hematological)): 8.52
pIC50 (Homo sapiens, LoVo, LOVO (colon)): 8.70
pIC50 (Homo sapiens, MCF7, 72 h, MCF7 (breast)): 8.70
pIC50 (Homo sapiens, MDA-MB-231, 72 h, MDAMB231 (breast)): 6.42
pIC50 (Homo sapiens, MDA-MB-435, 72 h, MDAMB435 (skin)): 7.77
pIC50 (Homo sapiens, MDA-MB-436, 72 h, MDAMB436 (breast)): 8.52
pIC50 (Homo sapiens, MDA-MB-468, 72 h, MDAMB468 (breast)): 7.74
pIC50 (Homo sapiens, MG-63, 72 h, MG63 (bone)): 8.00
pIC50 (Homo sapiens, MHH-ES-1, 72 h, MHHES1 (bone)): 8.30
pIC50 (Homo sapiens, MIA PaCa-2, 72 h, MIAPACA2 (pancreas)): 7.80
pIC50 (Homo sapiens, MINO, MINO (hematological)): 9.00
pIC50 (Homo sapiens, MV4-11, 72 h, MV4-11 (hematological)): 9.00
pIC50 (Homo sapiens, NCI-H23, 72 h, NCI-H23 (lung)): 8.10
pIC50 (Homo sapiens, NCI-H82, 72 h, NCIH82 (lung)): 8.22
pIC50 (Homo sapiens, NCI-H292, 72 h, NCIH292 (lung)): 7.72
pIC50 (Homo sapiens, NCI-H460, 72 h, NCIH460 (lung)): 8.70
pIC50 (Homo sapiens, OVCAR-3, 72 h, OVCAR3 (ovary)): 7.82
pIC50 (Homo sapiens, OVCAR-4, 72 h, OVCAR4 (ovary)): 6.27
pIC50 (Homo sapiens, PLC-PRF-5, 72 h, PLCPRF5 (liver)): 7.72
pIC50 (Homo sapiens, Panc1005, 72 h, PANC1005 (pancreas)): 6.26
pIC50 (Homo sapiens, Ramos, RAMOS (hematological)): 7.74
pIC50 (Homo sapiens, SAOS-2, 72 h, SAOS2 (bone)): 8.52
pIC50 (Homo sapiens, SF-268, 72 h, SF268 (brain)): 8.15
pIC50 (Homo sapiens, SF-295, 72 h, SF295 (brain)): 8.15
pIC50 (Homo sapiens, SK-HEP1, 72 h, SKHEP1 (liver)): 7.80
pIC50 (Homo sapiens, SK-LMS-1, 72 h, SKLMS1 (uterus)): 7.96
pIC50 (Homo sapiens, SK-MEL-5, 72 h, SKMEL5 (skin; SKMELS [sic] in Table 9E)): 7.54
pIC50 (Homo sapiens, SK-MEL-28, 72 h, SKMEL28 (skin)): 6.95
pIC50 (Homo sapiens, SK-N-AS, SKNAS (brain)): < 4.30
pIC50 (Homo sapiens, SK-N-SH, SKNSH (brain)): 6.82
pIC50 (Homo sapiens, SK-OV-3, 72 h, SKOV3 (ovary)): 7.55
pIC50 (Homo sapiens, SNB-75, 72 h, SNB75 (brain)): < 4.30
pIC50 (Homo sapiens, SU-DHL10, 72 h, SU-DHL-10 (hematological)): 6.65
pIC50 (Homo sapiens, SU-DHL-6, 72 h, SU-DHL-6 (hematological)): 8.15
pIC50 (Homo sapiens, SW-620, 72 h, SW620 (colon)): 8.70
pIC50 (Homo sapiens, TE-671, 72 h, TE671 (muscle)): 8.10
pIC50 (Homo sapiens, THP-1, 72 h, THP-1 (hematological)): 8.70
pIC50 (Homo sapiens, U2OS, U20S (bone; U2OS in Table 9E)): < 4.30
pIC50 (Homo sapiens, U-87 MG, U87MG (brain)): < 4.30
pIC50 (Homo sapiens, UMUC3, 72 h, UMUC3 (bladder)): 8.15
pIC50 (Homo sapiens, UO-31, 72 h, UO31 (kidney)): 7.51
pIC50 (Homo sapiens, WSU-NHL, WSU-NHL (hematological)): 9.00
pIC50 (NCI-H358M, NCIH358M (lung)): 8.22
pIC50 (PBMC, PBMC (hematological)): < 4.30
pIC50 (RD-ES, RDES (bone)): 8.15
